The results in this text go back to patent US20150175545A1, “Preparation Method of Fluoro-Substituted Deuterated Diphenylurea” (SUZHOU ZELGEN BIOPHARMACEUTICAL CO., LTD, priority 2012, published 2015).

Broadly, the AUC(0-t) is the area under the concentration-time curve up to a stated or last time point. Read a low AUC(0-t) as low exposure. The Cmax is the peak of the concentration-time curve. A word on the Tmax: it is the time at which the peak concentration occurs. As usually defined, the AUC(0-inf) is the area under the concentration-time curve extrapolated to infinity. A low value points to less exposure. For orientation: half-life means the time needed for the level to fall by half in the phase considered. Read a high half-life as slow decline.

The nature of data set [1]: Pharmacokinetic evaluation of CM4306, CM4308 and CM4309 in rats (mixed solution, intragastric). The data set is classed as in vivo, SD rats. The settings on record: 4 mg/kg intragastric, mixed solution in PEG400, plasma; for MRT inf: read-out: MRT(0-∞).
Experimental: Blood samples were collected at 0.25, 0.5, 1.0, 2.0, 3.0, 5.0, 7.0, 9.0, 24, 36, 48 and 72 h after the administration.
Data set [2] deals with c-Kit protein tyrosine kinase (Homo sapiens, UniProt P10721). Description: ELISA inhibition of c-Kit protein tyrosine kinase at the molecular level. It is filed as biochemical. The settings on record: for results (inhibition efficacy): c-Kit and PDGFR-β, efficacy if inhibition rate at 10^-5 mol/L greater than 50%. On the procedure:
(§1) The activity of diphenylurea compounds for inhibiting c-Kit, PDGFR-β protein tyrosine kinases on molecular level was tested by Enzyme-Linked Immunosorbent Assay (ELISA).
(§2) Reacting substrate Poly(Glu,Tyr)4:1 was bought from Sigma; Monoclonal antibody against tyrosine phosphate PY99 was bought from Santa Cruz; Horseradish peroxidase labeled sheep-against-rat IgG was bought from Calbiochem; ATP, DTT, OPD were bought from Amresco; microplates were bought from Corning; Su11248 was bought from Merk.
(§3) See Roskoski, R., Jr. Sunitinib: a VEGF and PDGF receptor protein kinase and angiogenesis inhibitor. Biochem Biophys Res Commun, 356: 323-328, 2007. The details comprise:
Kinase reaction substrate Poly(Glu,Tyr)4:1 was diluted to 20 μg/ml by potassium-free PBS, and the microplates were coated. Diphenylurea samples to be tested were added in the wells of the coated microplates (the samples to be tested were made from the stock solution of 10^−2 M in DMSO, and diluted to the desired concentration with reaction buffer before use. The resulted solution was added into the wells to get the final concentration of 10^−5 mol/L in 100 μL reaction system). At the same time, the positive control compound Su11248 was added to the positive control wells.
ATP solution diluted with reaction buffer (the final concentration of ATP is 5 μM) and tyrosine kinase for testing diluted with reaction buffer were added in turn. The total volume of reaction system was 100 μL. At the same time, the negative control wells and the control wells without enzyme were set up.
The reaction system was placed in a wet box and shaked for 1 h at 37° C. by shaking shielding from light. After the reaction was completed, plates were washed three times with T-PBS. Antibody PY99 was added (100 μL/well), and plates were shaked for 30 min at 37° C. After the reaction was completed, the plates were washed with three times T-PBS. Horseradish peroxidase labeled sheep-against-rat IgG was added (100 μL/well), and the plates were shaked for 30 min at 37° C. After the reaction was completed, the plates were washed with T-PBS for three times. OPD developing liquid was added (100 μL/well), and reacted for 1-10 min at room temperature shielding from light. 50 μL of 2 M H2SO4 was added to quench the reaction. A492 value was determined using wavelength-adjustable microplates reader VERSAmax.
(§4) The inhibition ratio of samples can be calculated by the following formula: […]
(In general: An ELISA detects its analyte on a solid surface through an enzyme-linked reagent.)

Data set [3] has as its system human liver cancer cell SMMC-7721. The data set can be described thus: Nude mice xenograft model inoculated with SMMC-7721 cells, tumor growth inhibition. It is filed as in vivo. The following applies: 30 mg/kg intragastric every day for 2 weeks; for relative tumor increment rate T/C %: effective if T/C ≦40% and p<0.05. On the procedure:
The establishment of tumor-bearing nude mice xenograft model: SMMC-7721 cells in logarithmic growth period were cultured. After cell number was counted, the cells were suspended in 1×PBS, and the concentration of the cell suspension was adjusted to 1.5×10^7/ml. The tumor cells were inoculated (s.c.) 3×10^6/0.2 ml/mice under the right armpit of nude mice. 45 nude mice were inoculated in total. When the tumor size reached 30-130 mm^3, 34 mice were randomly divided into different groups. […] Administration of testing drugs was started. […] Observation continued upon the withdraw till the tumor volume was larger than 2000 mm^3. The weight of animals and tumor size were tested twice a week during the experiment. […] The formula for calculating the tumor volume (TV) is: TV=a×b^2/2, wherein a and b independently and respectively represent the length and the breadth of the tumor. The formula for calculating the relative tumor volume (RTV) is: RTV=Vt/V0, wherein V0 is the tumor volume at the beginning of the administration, and Vt is […] when measured. The index for evaluating the antitumor activity is relative tumor increment rate T/C (%), and the calculation formula is: T/C (%)=(TRTV/CRTV)×100%, wherein, TRTV is the RTV for the treatment group, and CRTV is the RTV for the negative control group. Evaluation standard for efficacy: it is effective if the relative tumor increment rate T/C (%) is ≦40% and p<0.05 by statistics analysis.

Data set [4] deals with PDGFR-β protein tyrosine kinase (Homo sapiens, UniProt P09619). The data set can be described thus: ELISA inhibition of PDGFR-β protein tyrosine kinase at the molecular level. It is filed as biochemical. The settings on record: 10 μM compound, ATP 5 μM, mean of duplicate experiments. On the procedure: as §1, §2, §3
Kinase reaction substrate Poly(Glu,Tyr)4:1 was diluted to 20 μg/ml by potassium-free PBS, and the microplates were coated. […]
The reaction system was placed in a wet box and shaked for 1 h at 37° C. by shaking shielding from light. […] A492 value was determined using wavelength-adjustable microplates reader VERSAmax.
as §4

The mark [5] stands for this setting: male, SD, rat, plasma, po, 4 mg/kg, individual rat.
Setting [6] is: male, SD, rat, plasma, po, 4 mg/kg, mean value of 3 rats.
[7] abbreviates: male, SD, rat, plasma, po, 4 mg/kg, mean value of 3 rats, read-out: Cmax.
Setting [8] is: male, SD, rat, plasma, po, 4 mg/kg, mean value of 3 rats, read-out: Tmax.

The structures appear in SMILES notation. Several values for one entry are separate records, joined by “and”; a condition that tells them apart may be missing. Identical values can stand only once. Like-named read-outs stand apart in the source and are kept apart here.

c-Kit protein tyrosine kinase, sequence (P10721 26-976): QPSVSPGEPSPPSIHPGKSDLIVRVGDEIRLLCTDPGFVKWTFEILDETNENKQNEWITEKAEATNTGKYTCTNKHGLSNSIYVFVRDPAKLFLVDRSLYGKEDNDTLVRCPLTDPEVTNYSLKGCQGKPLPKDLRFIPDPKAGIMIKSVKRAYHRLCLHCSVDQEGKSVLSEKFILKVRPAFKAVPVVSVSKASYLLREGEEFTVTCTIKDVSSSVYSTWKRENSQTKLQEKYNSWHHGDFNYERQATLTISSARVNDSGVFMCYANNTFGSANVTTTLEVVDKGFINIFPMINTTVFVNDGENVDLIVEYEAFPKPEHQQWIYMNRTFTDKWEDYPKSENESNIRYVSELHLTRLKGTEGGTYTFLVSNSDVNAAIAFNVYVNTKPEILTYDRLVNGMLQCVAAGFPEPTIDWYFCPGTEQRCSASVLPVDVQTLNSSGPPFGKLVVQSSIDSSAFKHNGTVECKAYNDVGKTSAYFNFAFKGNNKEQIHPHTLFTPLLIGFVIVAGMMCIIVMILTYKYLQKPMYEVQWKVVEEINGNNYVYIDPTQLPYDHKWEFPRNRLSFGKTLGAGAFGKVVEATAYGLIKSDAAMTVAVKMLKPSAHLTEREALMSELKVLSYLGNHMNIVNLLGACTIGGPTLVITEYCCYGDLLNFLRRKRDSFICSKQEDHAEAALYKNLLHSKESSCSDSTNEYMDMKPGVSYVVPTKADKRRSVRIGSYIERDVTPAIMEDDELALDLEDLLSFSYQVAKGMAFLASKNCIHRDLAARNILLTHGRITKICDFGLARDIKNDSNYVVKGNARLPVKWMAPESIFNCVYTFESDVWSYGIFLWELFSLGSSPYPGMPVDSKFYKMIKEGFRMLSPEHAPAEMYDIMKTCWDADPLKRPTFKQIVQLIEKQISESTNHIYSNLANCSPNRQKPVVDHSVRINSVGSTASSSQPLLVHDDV
PDGFR-β protein tyrosine kinase, sequence (P09619 33-1106): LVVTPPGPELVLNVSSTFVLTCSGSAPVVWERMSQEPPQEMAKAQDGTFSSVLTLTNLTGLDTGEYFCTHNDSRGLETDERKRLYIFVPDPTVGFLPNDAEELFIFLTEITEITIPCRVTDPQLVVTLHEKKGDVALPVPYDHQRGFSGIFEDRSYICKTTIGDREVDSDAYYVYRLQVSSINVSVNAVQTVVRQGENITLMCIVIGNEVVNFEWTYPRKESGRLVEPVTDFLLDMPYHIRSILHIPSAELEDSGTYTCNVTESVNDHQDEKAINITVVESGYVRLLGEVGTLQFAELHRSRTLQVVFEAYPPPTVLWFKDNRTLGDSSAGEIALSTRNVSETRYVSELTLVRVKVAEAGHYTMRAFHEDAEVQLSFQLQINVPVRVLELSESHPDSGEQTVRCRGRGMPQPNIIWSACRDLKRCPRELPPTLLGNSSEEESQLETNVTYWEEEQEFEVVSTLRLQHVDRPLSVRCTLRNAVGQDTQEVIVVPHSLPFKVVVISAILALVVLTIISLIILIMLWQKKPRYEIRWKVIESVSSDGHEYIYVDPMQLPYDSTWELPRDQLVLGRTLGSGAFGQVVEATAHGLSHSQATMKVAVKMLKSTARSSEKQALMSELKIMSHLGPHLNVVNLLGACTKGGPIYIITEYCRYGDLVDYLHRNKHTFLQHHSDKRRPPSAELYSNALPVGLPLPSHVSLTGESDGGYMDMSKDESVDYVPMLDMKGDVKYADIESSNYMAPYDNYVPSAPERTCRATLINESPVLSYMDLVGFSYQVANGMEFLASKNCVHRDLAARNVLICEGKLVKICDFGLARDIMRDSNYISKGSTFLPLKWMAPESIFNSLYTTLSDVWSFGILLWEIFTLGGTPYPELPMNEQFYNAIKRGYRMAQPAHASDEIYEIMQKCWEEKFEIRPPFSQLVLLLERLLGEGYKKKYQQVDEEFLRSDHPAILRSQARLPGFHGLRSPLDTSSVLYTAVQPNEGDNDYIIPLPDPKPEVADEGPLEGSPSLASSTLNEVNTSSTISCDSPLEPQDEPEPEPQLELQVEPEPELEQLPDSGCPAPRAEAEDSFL

For the molecule `CNC(=O)c1cc(Oc2ccc(NC(=O)Nc3ccc(Cl)c(C(F)(F)F)c3)cc2)ccn1` [CM4306, 4-(4-(3-(4-chloro-3-(trifluoromethyl)phenyl]ureido)-phenoxy)-(N-methyl)picolinamide], in data set [1] (individual rat, 4 mg/kg), the “AUC(0-t)” value was 23431 ng·h/mL and 40239 ng·h/mL and 24571 ng·h/mL; the “AUC(0-∞)” value was 41544 ng·h/mL and 25008 ng·h/mL; the Cmax was 642 ng/mL and 1568 ng/mL and 651 ng/mL; the “MRT(0-∞)” value was 23.2 h and 23.9 h. For the same molecule, the Tmax in data set [1] (individual rat, 4 mg/kg) is 8.0 h and 2.0 h. Besides, in data set [1] (setting [5]), the AUC(0-inf) turned out to be 24600 ng·h/mL, the half-life was 14.8 h and the MRT inf turned out to be 28.2 h. In data set [1] (setting [6]), the total exposure AUC(0-inf) was 30400 ng·h/mL and the MRT inf worked out at 25.1 h. Moreover, in data set [1] (setting [7]), the peak concentration (Cmax) was determined as 954 ng/mL. In addition, the Tmax in data set [1] (setting [8]) was 6 h. Besides, in data set [1] (mean value of 3 rats), the “AUC(0-t)” value is 29414 ng·h/mL. In addition, in data set [2], the “results (inhibition efficacy)” value is given as “effective”.
As to `CNC(=O)c1cc(Oc2ccc(NC(=O)Nc3ccc(Cl)c(C(F)(F)F)c3)c(F)c2)ccn1` [CM4308, 4-(4-(3-(4-chloro-3-(trifluoromethyl)phenyl]ureido)-3-fluorophenoxy)-N-methylpicolinamide], in data set [1] (individual rat, 4 mg/kg), the “AUC(0-t)” value is 11473 ng·h/mL and 9327 ng·h/mL and 18558 ng·h/mL; the “AUC(0-∞)” value is 9541 ng·h/mL and 18973 ng·h/mL; the maximum concentration (Cmax) was 378 ng/mL and 279 ng/mL and 817 ng/mL; the “MRT(0-∞)” value is 24.1 h and 21.7 h. In data set [1] (individual rat, 4 mg/kg), the T1/2 is 11.7 h and 11.4 h; the Tmax was 8.0 h and 6.0 h and 1.0 h. In data set [1] (setting [5]), the area under the curve AUC(0-inf) was determined as 11600 ng·h/mL, the half-life is 10.1 h and the MRT inf turned out to be 21 h. Further, in data set [1] (setting [6]), the area under the curve AUC(0-inf) worked out at 13400 ng·h/mL, the half-life was 11.1 h and the MRT inf stood at 22.2 h. Besides, the peak concentration (Cmax) in data set [1] (setting [7]) was 491 ng/mL. Moreover, the time to peak (Tmax) in data set [1] (setting [8]) amounted to 5 h. Moreover, the “AUC(0-t)” value in data set [1] (mean value of 3 rats) was determined as 13119 ng·h/mL. For the same molecule, the “relative tumor increment rate T/C %” value in data set [3] amounted to 51.6%. Further, the “results (inhibition efficacy)” value in data set [2] is reported as “effective”.
Turning to `[2H]C([2H])([2H])NC(=O)c1cc(Oc2ccc(NC(=O)Nc3ccc(Cl)c(C(F)(F)F)c3)c(F)c2)ccn1` [CM4309, 4-(4-(3-(4-chloro-3-(trifluoromethyl)phenyl]ureido)-3-fluorophenoxy)-N-(methyl-d3)picolinamide], in data set [1] (individual rat, 4 mg/kg), the “AUC(0-t)” value is 22220 ng·h/mL and 35592 ng·h/mL and 25601 ng·h/mL; the “AUC(0-∞)” value was 41702 ng·h/mL and 28899 ng·h/mL; the maximum concentration (Cmax) is 933 ng/mL and 530 ng/mL; the “MRT(0-∞)” value was 39.1 h and 36.7 h. Moreover, in data set [1] (individual rat, 4 mg/kg), the T1/2 was 23.4 h and 20.9 h; the Tmax was 24.0 h and 1.0 h and 8.0 h. For the same molecule, in data set [1] (setting [5]), the area under the curve AUC(0-inf) stood at 27400 ng·h/mL, the half-life was 26.7 h and the MRT inf is 45.9 h. Further, the Cmax in data set [1] (male, SD, rat, plasma, po, 4 mg/kg, individual rat, read-out: Cmax) turned out to be 470 ng/mL. In data set [1] (setting [6]), the AUC(0-inf) was 32700 ng·h/mL, the half-life is 23.7 h and the MRT inf was determined as 40.6 h. For the same molecule, the Cmax in data set [1] (setting [7]) amounted to 644 ng/mL. Moreover, in data set [1] (setting [8]), the time to peak (Tmax) worked out at 11 h. The “AUC(0-t)” value in data set [1] (mean value of 3 rats) was 27804 ng·h/mL. For the same molecule, the “relative tumor increment rate T/C %” value in data set [3] is 27.0% and < 40%. Further, in data set [3] (p<0.01 vs control group), the “effect on tumor growth (tumor volume vs control group)” value is given as “significant effect in inhibiting tumor growth”. In data set [2], the “results (inhibition efficacy)” value is given as “effective”.
In the case of `CCN(CC)CCNC(=O)c1c(C)[nH]c(/C=C2\C(=O)Nc3ccc(F)cc32)c1C` [Su11248], the “% Inhibition ratio for inhibiting tyrosine kinase at 10 μM, PDGFR-β mean value” in data set [4] is listed as 93.9%. Moreover, the “% Inhibition ratio for inhibiting tyrosine kinase at 10 μM, c-Kit mean value” in data set [2] (10 μM compound, ATP 5 μM, mean of duplicate experiments) is 90.2%. The “results (inhibition efficacy)” value in data set [2] is on record as “effective”.
